Laboratory results: PMC12389170, “N-Degron-Based PROTAC Targeting PLK1: A Potential Therapeutic Strategy for Cervical Cancer” (Pharmaceutics, 2025)
Non-standard residues stand in square brackets, D forms with d. Residues, ends and D or L forms follow the SMILES beside them. No end group written: not given here. *: point of attachment. n‑octylphenyl = n-octylphenyl group on the histidine (alkylphenyl side chain at His); His(π-(CH2)8Ph) = N[C@@H](Cc1cncn1CCCCCCCCc1ccccc1)C(=O)O; pT = C[C@@H](OP(=O)(O)O)[C@H](N)C(=O)O; Cbz = O=C(OCc1ccccc1)*; Ahx = NCCCCCC(=O)O

Experiments:
[1] = target: T1, PLK1 (Homo sapiens, UniProt P53350); assay: PLK1 protein degradation in HeLa cells by immunoblotting; assay type: cell-based; conditions: NC1 24 h, 5 µM MG132 for 8 h
T1 construct: cells were lysed and total proteins were extracted for immunoblot analysis of PLK1 expression; endogenous in cells; host or cells: HeLa
Method: HeLa cells were seeded in 12-well plates with 1 × 10^5 cells per well and allowed to stay for overnight. Various concentrations (0, 1, 2, 3, 4, and 5 µM) of NC1 were added to HeLa cells in 12-well plates and incubated for 24 h. An amount of 5 µM of MG132 was added to the cells and incubated for 8 h to evaluate the proteasome inhibition. before harvesting. Following treatment, cells were lysed and total proteins were extracted for immunoblot analysis of PLK1 expression. Protein samples were separated by SDS-PAGE and transferred onto PVDF membranes. PLK1 was detected using a mouse-derived monoclonal antibody, with β-actin used as an internal control to ensure equal loading.

[2] = test system: HeLa xenograft cervical cancer; assay: In vivo antitumor activity, HeLa xenograft mouse model; conditions: nude mice, 4 mg/kg tail vein every 3-4 d for 29 d, n = 4
Method: The antitumor efficacy of NC1 was assessed in a HeLa xenograft mouse model, as reported. Briefly, 5 × 10^6 HeLa cells were subcutaneously injected into the right thigh region of immunodeficient nude mice. When tumors reached an approximate volume of 100 mm^3 (calculated using the formula: volume = 0.52 × length × width^2), mice were randomly assigned to treatment groups. NC1 (4 mg/kg) or PBS (vehicle control) was administered via tail vein injection at intervals of 3–4 days over a period of 29 days. Tumor volumes were measured regularly using calipers. All animal procedures were approved by the KBSI Institutional Animal Care and Use Committee (Protocol No. KBSI-IACUC-24-15) and were conducted in accordance with institutional and governmental regulations.

[3] = test system: HeLa cells
[4] = target: T2, PLK1 PBD (Mus musculus, UniProt Q07832); assay: Isothermal titration calorimetry (ITC) of PLK1 PBD with NC1; conditions: 25 °C, PLK1 PBD 20 µM in cell, NC1 200 µM in syringe, 20 mM HEPES pH 7.5, 200 mM NaCl, 5% DMSO, one-site model, read-out: Kd, binding affinity between NC1 and PLK1 PBD
T2 construct: (Swiss Prot entry Q07832, residues 367–603); 6XHis (N); TEV protease cleavage site (N); made in house; pET28a vector and IPTG induction point to E. coli (inferred)
Method: The mouse PLK1 in Polo box domain (PBD) (Swiss Prot entry Q07832, residues 367–603) was expressed as a recombinant protein containing an N-terminal 6XHis tag in the pET28a vector and a tobacco etch virus (TEV) protease cleavage was engineered between the affinity tag and PLK1 PBD. PLK1 PBD protein expression was induced by adding 0.1 mM IPTG and incubating the cells overnight at 18 °C. Following induction, the cells were collected by centrifugation and lysed via sonication after being resuspended in buffer composed of 20 mM HEPES (pH 7.5), 200 mM NaCl, 2 mM β-mercaptoethanol, and 1 mM PMSF. The lysate was clarified by centrifugation at 18,000 rpm for 40 min at 4 °C. The resulting supernatant was subjected to immobilized metal affinity chromatography (IMAC) using a Ni^2+-NTA HiTrap column (GE Healthcare), and the protein was eluted using an imidazole gradient ranging from 25 to 500 mM. For further purification, size-exclusion chromatography was conducted on a HiLoad 26/60 Superdex-75 column equilibrated with 20 mM HEPES (pH 7.2), 150 mM NaCl, and 2 mM DTT. PLK1 PBD protein was purified the purity of the proteins at each stage was checked on 15% SDS-PAGE. The purified PLK1 PBD protein was concentrated to 10 mg/mL using a VIVASPIN20 (Sartorius, Göttingen, Germany) concentrator and stored at −80 °C until use. […]

[5] = test system: cervical carcinoma; conditions: advanced or recurrent cervical carcinoma, limited owing to chemoresistance; cited from earlier work
From the text: According to the WHO, cervical cancer was the fourth most common cancer among women globally in 2022, with an estimated 660,000 new cases. Cervical cancer remains a considerable health threat, with 94% of the 350,000 deaths occurring in low- and middle-income countries. Chemotherapy, particularly cisplatin, is the primary treatment for advanced or recurrent cervical carcinoma. However, the response rate is limited to approximately 23% owing to chemoresistance. In addition, carboplatin, another platinum-based chemotherapy, is often used as an alternative for patients intolerant to c ...

[6] = test system: HeLa cells; assay: Fluorescence apoptosis assay (LIVE/DEAD kit); assay type: cell-based; conditions: 6 µM, 24 h, LIVE/DEAD staining
[7] = test system: HeLa cells; assay: Morphological assessment by phase contrast microscopy; assay type: cell-based; conditions: 6 µM, 30 h
[8] = test system: HeLa cells; assay: G2/M phase cell cycle arrest by flow cytometry (PI); assay type: cell-based; conditions: 6 µM, 24 h
Method: HeLa cells (3.5 × 10^5 cells/well) were seeded into 6-well plates and grown to 80–90% confluence. […] Both medium and floating cells were collected, washed with PBS three times, and fixed in 70% cold ethanol. Further, cells were washed again with PBS and stained with a solution containing PI (1 µg/mL) and RNase A (1 µg/mL) at 37 °C for 30 min. The stained cells were analyzed using a CytoFLEX flow cytometer (Beckman Coulter, Brea, CA, USA), and data were processed with FlowJo v10.10 [10].

[9] = target: T3, NC1 (Arg12-Ahx-PLH(n-octylphenyl)SpT PROTAC peptide) (synthetic construct); assay: ITC
T3 chain: RRRRRRRRRRRR[Ahx]PLH(n‑octylphenyl)S[pT]-NH2

T1 sequence (P53350 whole entry): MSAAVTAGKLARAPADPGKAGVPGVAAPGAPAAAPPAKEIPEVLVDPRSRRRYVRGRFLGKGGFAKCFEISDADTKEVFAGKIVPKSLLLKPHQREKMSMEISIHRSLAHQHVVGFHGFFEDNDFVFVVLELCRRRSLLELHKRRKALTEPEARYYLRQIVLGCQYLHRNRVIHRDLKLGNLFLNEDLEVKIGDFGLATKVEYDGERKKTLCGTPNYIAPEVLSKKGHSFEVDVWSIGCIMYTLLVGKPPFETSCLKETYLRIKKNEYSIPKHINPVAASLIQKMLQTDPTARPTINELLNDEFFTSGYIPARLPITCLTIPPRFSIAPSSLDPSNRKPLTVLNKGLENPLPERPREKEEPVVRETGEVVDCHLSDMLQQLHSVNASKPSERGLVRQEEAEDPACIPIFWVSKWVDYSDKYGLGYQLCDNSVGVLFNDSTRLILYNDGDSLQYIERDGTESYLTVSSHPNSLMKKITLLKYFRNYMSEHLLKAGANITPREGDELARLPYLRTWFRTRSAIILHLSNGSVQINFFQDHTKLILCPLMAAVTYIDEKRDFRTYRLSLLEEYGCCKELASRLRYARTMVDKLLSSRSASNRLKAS

Molecule: CC(C)C[C@@H](C=O)NC(=O)[C@H](CC(C)C)NC(=O)[C@H](CC(C)C)NC(=O)OCc1ccccc1 [MG132] (Cbz-Leu-Leu-Leu-aldehyde)
- Effect of proteasome inhibitor co-treatment on NC1-induced PLK1 degradation [1]: significantly reduced degradation

Molecule: CC(C)C[C@H](NC(=O)[C@@H]1CCCN1C(=O)CCCCCNC(=O)[C@H](CCCNC(=N)N)NC(=O)[C@H](CCCNC(=N)N)NC(=O)[C@H](CCCNC(=N)N)NC(=O)[C@H](CCCNC(=N)N)NC(=O)[C@H](CCCNC(=N)N)NC(=O)[C@H](CCCNC(=N)N)NC(=O)[C@H](CCCNC(=N)N)NC(=O)[C@H](CCCNC(=N)N)NC(=O)[C@H](CCCNC(=N)N)NC(=O)[C@H](CCCNC(=N)N)NC(=O)[C@H](CCCNC(=N)N)NC(=O)[C@@H](N)CCCNC(=N)N)C(=O)N[C@@H](Cc1cncn1CCCCCCCCc1ccccc1)C(=O)N[C@@H](CO)C(=O)N[C@H](C(N)=O)[C@@H](C)OP(=O)(O)O [NC1] (H-RRRRRRRRRRRR[Ahx]PL[His(π-(CH2)8Ph)]S[pT]-NH2)
- Body weight of tumor-bearing mice [2]: remained constant
- IC50 ([3]; read-out: IC50 for cancer cell viability, MTT, 24 h): 5.23 µM
- Kd [4]: 6.06 µM

Molecule: N.N.[Cl][Pt][Cl] [cisplatin]
- Response rate [5]: approximately 23%

Molecule: PLH(n-octylphenyl)SpT [4j]
- Apoptotic (dead, red) cells in fluorescence images [6]: few apoptotic red cells
- Morphological changes of HeLa cells [7]: did not induce notable morphological changes
- Effect on cell viability ([3]; MTT, 24 h, up to 12 µM): did not significantly affect cell viability
- G1 cell population [8]: 75.88
- G2/M cell population [8]: 14.68
- Increase in G2/M cell population compared with the control [8]: 2.38%
- S cell population [8]: 5.47
- SubG1 cell population [8]: 3.97

B1: PLK1 367-603 (protein)
chain: NEAIECHLSDLLQQLTSVNASKPSERGLVRQEEAEDPACIPIFWVSKWVDYSDKYGLGYQLCDNSVGVLFNDSTRLILYNDGDSLQYIERDGTESYLTVSSHPNSLMKKITLLNYFRNYMSEHLLKAGANITPREGDELARLPYLRTWFRTRSAIILHLSNGTVQINFFQDHTKLILCPLMAAVTYINEKRDFQTYRLSLLEEYGCCKELASRLRYARTMVDKLLSSRSASNRLKAS
- Kd [9]: 6.06 µM
